Measurements published in patent US6841559B1, “Pyridinones to treat and prevent bacterial infections” (Washington University of St. Louis, priority 1999, dated 2005).

Key:
[1] = target: periplasmic chaperone FimC (Escherichia coli, UniProt P31697); test: Direct binding assay on BIACORE 3000, immobilized FimC; settings: pyridinone 30 uM, 25° C., 30 μL/min, triplicate, Sensor Chip CM5
Method: (§1) The affinity of the following pyridinone: [drawing 73] for periplasmic chaperones PapD and FimC were investigated using a direct binding assay on BIACORE 3000. Methods
(§2) PapD (50 μg/ML in 10 mM NaAc pH 5.5) and FimC (50 μg/mL in 10 mM NaAc pH 5.5) were mobilized on Sensor Chi CM5 using standard thiol coupling procedure. This procedure was also employed for coupling of non-target proteins. Immobilization levels of 4000-10000 RU were obtained. Unmodified dextrane in one of the flow cells was used as reference surface.
(§3) The pyridinone was diluted from 10 mM DMSO stock solution to a final concentration of 30 μM in running buffer (6.7 mM phosphate buffer (9.6 g Na2HPO4.2H2O, 1.7 G KH2PO4, 4.1 g NaCl, 100 mL H2O), 3.4 mM EDTA, 0.01% TWEEN, 5% DMSO, pH 7.4) so that the concentrations of DMSO and buffer substances were carefully matched. The compounds were injected (flow rate was 30 μL/min at 25° C.) and the binding of the compounds to the immobilized chaperone proteins was observed on real time. The surface was regenerated by injection of 10 mM glycin.HCl, pH 2.0 and then washed with a 1:1 mixture of DMSO and water.
(§4) For screening of the affinity of the compounds of PapD and FimC, the pyridinone was injected (flow rate was 30 μL/min at 25° C.) at a concentration of 30 μM in triplicate. […]
as §3, with “KH2PO2PO4,” for “KH2PO4,”, “water. […]” for “water.”
(§5) A direct binding assay on BIACORE 3000 was employed to test the affinity of the following pyridinone: [drawing 76] for periplasmic chaperones PapD and FimC. Methods

[2] = target: periplasmic chaperone PapD (Escherichia coli, UniProt P15319); test: Direct binding assay on BIACORE 3000, immobilized PapD; settings: pyridinone 30 uM, 25° C., 30 μL/min, triplicate, Sensor Chip CM5
Method: as §1, §2, §3, §4
as §3, with “KH2PO2PO4,” for “KH2PO4,”, “water. […]” for “water.”
as §5

Sequence of periplasmic chaperone PapD (P15319 22-239): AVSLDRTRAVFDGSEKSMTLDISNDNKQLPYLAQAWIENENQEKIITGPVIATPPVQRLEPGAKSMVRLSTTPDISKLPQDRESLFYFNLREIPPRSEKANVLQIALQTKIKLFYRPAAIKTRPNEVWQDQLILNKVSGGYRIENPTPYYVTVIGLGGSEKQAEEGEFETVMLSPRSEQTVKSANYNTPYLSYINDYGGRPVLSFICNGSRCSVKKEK
Sequence of periplasmic chaperone FimC (P31697 37-241): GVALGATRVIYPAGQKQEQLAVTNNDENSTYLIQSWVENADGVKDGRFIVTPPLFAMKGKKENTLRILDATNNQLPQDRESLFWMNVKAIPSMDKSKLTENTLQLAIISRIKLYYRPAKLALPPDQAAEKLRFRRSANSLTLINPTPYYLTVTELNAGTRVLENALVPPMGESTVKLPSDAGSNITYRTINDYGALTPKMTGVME

SMILES | Response Units FimC 30 uM [1] | Response Units PapD 30 uM [2]
O=C(O)[C@@H]1CSc2cc(Cc3cccc4ccccc34)cc(=O)n21 [H_Pyr_COOH] | 11,69075072 Response Units | 6,760176162 Response Units
O=C(O)[C@@H]1CSc2c(-c3ccccc3)c(Cc3cccc4ccccc34)cc(=O)n21 [Ph_Pyr_COOH] | 60,71350348 Response Units | 46,22397585 Response Units
Cc1cc(=O)n2c(c1C)SC[C@H]2C(=O)O [Me_Me_Pyr_COOH] | 6,535311642 Response Units | 1,676914034 Response Units
Cc1cc(=O)n2c(c1-c1ccccc1)SC[C@H]2C(=O)O [Me_Ph_Pyr_COOH] | 6,753367367 Response Units | 3,90056354 Response Units
